Reference: PMC11859264, “Discovery of a Novel Multitarget Analgesic Through an In Vivo-Guided Approach” (Pharmaceuticals, 2025)
pIC50, pKi: −log10 of the molar value.

Experiments:
[1] = In vivo pharmacokinetic study; set-up: species or system Sprague–Dawley rats; settings: rats; for AUC(0-inf) / AUC(0-t) / CL/F / Cmax / Tmax / half-life: male, Sprague-Dawley, rat, plasma
Method: The in vivo pharmacokinetics parameters of compound 29 were measured in rats over 24 h following intraperitoneal (IP) and oral (PO) administration (Figure 4). These experiments were conducted to evaluate the compound’s absorption, distribution, metabolism, and excretion profiles under different routes of administration. Male Sprague–Dawley rats (n = 3 per group, weight 200–250 g) were fasted overnight but had free access to water. All animal experiments were conducted in accordance with institutional guidelines. For intraperitoneal (IP) administration, compound 29 was dissolved in saline and DMSO, while for oral (PO) administration, the compound was suspended in 0.5% carboxymethyl cellulose (CMC). All solutions were freshly prepared and filtered before administration to ensure homogeneity. Compound 29 was administered at 5 mg/kg via intraperitoneal injection or at 10 mg/kg by oral gavage. […] Blood was collected into EDTA-coated tubes and centrifuged at 2000× g for 10 min at 4 °C to separate plasma. Plasma samples were stored at −80 °C until analysis. Before analysis, plasma samples were thawed on ice, and proteins were precipitated using acetonitrile containing an internal standard. The mixture was centrifuged, and the supernatant was collected for analysis. Plasma concentrations of compound 29 were determined using a validated LC-MS/MS method. […] Quantification was performed in Multiple Reaction Monitoring (MRM) mode using Xcalibur software (version 4.4). Pharmacokinetic parameters, including AUClast, AUCinf, Cmax, Tmax, t1/2, Cl/F, and Vd, were calculated using non-compartmental analysis (NCA) with Phoenix WinNonlin software 8.5.2 (Certara, Radnor, PA, USA).

[2] = target: T1, Transporter, Serotonin (SERT) (Homo sapiens, UniProt P31645); assay: Radioligand binding, [3H] Paroxetine, Eurofins
T1 construct: host or cells: HEK-293 cells

[3] = target: CYP2C9 (Homo sapiens, UniProt P11712); assay: in vitro; settings: microsomes, pH 7.4, CYP2C9 % of inhibition
[4] = system: spinal nerve ligation (SNL) model; assay: Spinal nerve ligation (SNL) neuropathic pain model, von Frey paw withdrawal threshold; type: in vivo; settings: SNL rats; for maximum possible effect (MPE), withdrawal threshold: 3 h after administration
From the text: The SNL model, also known as the Chung model, is a widely used animal model for studying neuropathic pain, a chronic pain condition resulting from nervous system damage. This model replicates human neuropathic pain, which can stem from nerve injuries due to conditions like diabetes, shingles, or spinal cord injury. In the SNL model, the L5 or L6 spinal nerve is surgically ligated to induce nerve injury, leading to the development of long-lasting neuropathic pain symptoms in the animal. Following the nerve injury, animals display pain-related behaviors that mirror those seen in human neuropathic pain conditions, such as allodynia and hyperalgesia. Behavioral assessments conducted 14 days after surgery evaluate the animal’s sensitivity to mechanical stimuli using Von Frey filaments to quantify pain responses and measure mechanical allodynia.
In this experiment, compound 29 was administered intraperitoneally at two different doses, 50 and 100 mg/kg, and its analgesic effects were assessed by measuring the 50% withdrawal threshold at multiple time points (1, 3, and 5 h post-administration) (Figure 3A). […]
Spinal nerve ligation (SNL) was performed following the method described by Kim and Chung. […] Following the surgery, the rats were returned to their cages and monitored during recovery.
Behavioral signs indicative of neuropathic pain (mechanical allodynia) were assessed in all rats for two weeks postoperatively. The paw withdrawal threshold (PWT) was measured using von Frey filaments (Stoelting, Wood Dale, IL, USA) and the up–down method. […] A brisk withdrawal or paw flinching was recorded as a positive response. […]
Figure 3 Antinociceptive effect of compound 29 on mechanical allodynia in SNL model rats. (A) The mechanical allodynia was induced by spinal nerve ligation and evaluated by measuring paw withdrawal thresholds in response to von Frey filament stimuli. […] The MPE was calculated using the following formula: MPE (%) = [(post-treated value − pre-treatment threshold) × 100]/(maximum possible threshold − pre-treatment threshold). Data are expressed as mean ± SEM. […]

T1 sequence (P31645 whole entry): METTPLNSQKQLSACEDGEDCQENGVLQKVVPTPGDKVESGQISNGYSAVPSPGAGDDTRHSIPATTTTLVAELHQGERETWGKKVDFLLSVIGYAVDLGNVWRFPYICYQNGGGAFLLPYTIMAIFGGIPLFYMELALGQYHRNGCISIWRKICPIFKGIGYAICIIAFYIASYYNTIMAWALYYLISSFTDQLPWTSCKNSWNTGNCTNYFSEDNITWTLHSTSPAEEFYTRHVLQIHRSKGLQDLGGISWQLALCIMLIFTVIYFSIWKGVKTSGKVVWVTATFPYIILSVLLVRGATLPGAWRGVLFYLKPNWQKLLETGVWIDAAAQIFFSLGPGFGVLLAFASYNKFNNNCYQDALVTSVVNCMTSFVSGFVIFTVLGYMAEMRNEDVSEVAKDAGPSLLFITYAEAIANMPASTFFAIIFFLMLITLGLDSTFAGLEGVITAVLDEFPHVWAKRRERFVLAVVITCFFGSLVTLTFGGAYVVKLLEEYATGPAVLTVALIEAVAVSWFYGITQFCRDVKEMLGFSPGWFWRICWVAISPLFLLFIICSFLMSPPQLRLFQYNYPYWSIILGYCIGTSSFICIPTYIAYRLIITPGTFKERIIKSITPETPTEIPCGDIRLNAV
CYP2C9, sequence (P11712 whole entry): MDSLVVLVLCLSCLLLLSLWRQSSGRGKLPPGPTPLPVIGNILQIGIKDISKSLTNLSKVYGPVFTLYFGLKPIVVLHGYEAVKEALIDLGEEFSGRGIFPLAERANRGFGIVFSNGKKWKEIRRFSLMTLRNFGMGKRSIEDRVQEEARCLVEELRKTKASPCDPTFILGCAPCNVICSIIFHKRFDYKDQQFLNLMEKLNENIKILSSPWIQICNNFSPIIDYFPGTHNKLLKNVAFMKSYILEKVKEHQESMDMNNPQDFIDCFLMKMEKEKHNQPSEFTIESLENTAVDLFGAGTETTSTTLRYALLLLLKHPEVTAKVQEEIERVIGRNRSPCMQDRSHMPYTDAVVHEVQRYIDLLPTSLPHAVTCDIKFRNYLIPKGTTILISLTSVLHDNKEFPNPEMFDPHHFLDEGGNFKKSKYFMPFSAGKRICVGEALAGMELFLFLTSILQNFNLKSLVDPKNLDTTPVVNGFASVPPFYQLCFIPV

N#Cc1ccc2[nH]cc(C(=O)NCCN3CCN(c4ccc5ccccc5n4)CC3)c2c1 [Compound 29, 5-Cyano-N-(2-(4-(quinolin-2-yl)piperazin-1-yl)ethyl)-1H-indole-3-carboxamide]
AUC(0-inf) ([1]; IP, 5 mg/kg): 1380 ng·h/mL | AUC(0-t) ([1]; IP, 5 mg/kg): 1030 ng·h/mL | CL/F ([1]; IP, 5 mg/kg): 64.7 mL/min/kg | Cmax ([1]; IP, 5 mg/kg): 208 ng/mL | Tmax ([1]; IP, 5 mg/kg): 2.83 h | half-life ([1]; IP, 5 mg/kg): 3.49 h | AUC(0-inf) ([1]; PO, 10 mg/kg): 430 ng·h/mL | AUC(0-t) ([1]; PO, 10 mg/kg): 407 ng·h/mL | CL/F ([1]; PO, 10 mg/kg): 401 mL/min/kg | Cmax ([1]; PO, 10 mg/kg): 113 ng/mL | Tmax ([1]; PO, 10 mg/kg): 1.5 h | half-life ([1]; PO, 10 mg/kg): 1.67 h | Vd ([1]; IP, 5 mg/kg): 17.9 L/kg | Vd ([1]; PO, 10 mg/kg): 57.4 L/kg | nH (Hill coefficient) ([2]; SERT): 0.84 | pKi ([2]; SERT, Cheng and Prusoff): 6.89 | pIC50 ([2]; SERT, human recombinant HEK-293 cells): 6.11 | times more potent at SERT compared to fluoxetine ([2]; ratio of Ki values): 13 | inhibition at 15 min, 10 µM [3]: < 50% | maximum possible effect (MPE), withdrawal threshold ([4]; 50 mg/kg intraperitoneal): 24% | maximum possible effect (MPE), withdrawal threshold ([4]; 100 mg/kg intraperitoneal): 45% | time of most pronounced analgesic effect (Tmax) ([4]; 50 and 100 mg/kg intraperitoneal): 3 h
